Measurements from PubChem BioAssay AID1963825 (Molecular Pharmacology Branch, DTP, NCI, 2024).

Assay: Anticancer human tumor 997537-175-T-J1-PDC patient-derived colon adenocarcinoma cell line growth inhibition [POLQ]
Settings: 997537-175-T-J1-PDC complex spheroid viability, combination with POLQ inhibitors; for IC50: curve of first compound; for viability, T/C: stronger effect = lower value
Outline: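 Three-cell-type spheroids modelling solid tumor plus stroma served as the readout system; POL inhibitors were tested individually and in combination, concentration ranges set by clinical Cmax where known.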
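Note: luminescence signal used as a surrogate for viable cells; spheroids exposed to drugs for seven days before readout.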

`Cn1ncnc1[C@H]1c2n[nH]c(=O)c3cc(F)cc(c23)N[C@@H]1c1ccc(F)cc1` + COC1C(OC(N)=O)C(O)C(Oc2ccc3c(O)c(NC(=O)c4ccc(O)c(CC=C(C)C)c4)c(=O)oc3c2C)OC1(C)C showed an IC50 (second compound 0.0316 µM) of over 100 nM, an IC50 (second compound 0.1 µM) of over 100 nM and an IC50 (second compound 0.316 µM) of over 100 nM. It also gave an IC50 (second compound 1 µM) of over 100 nM, an IC50 (second compound 3.16 µM) of over 100 nM and an IC50 (second compound 10 µM) of over 100 nM. The viability, T/C (second compound 0.0316 µM, first compound 0.000316 µM) was 92.9%, the viability, T/C (second compound 0.0316 µM, first compound 0.001 µM) was 99.7% and the viability, T/C (second compound 0.0316 µM, first compound 0.00316 µM) was 108%. For the same compound, the viability, T/C (second compound 0.0316 µM, first compound 0.01 µM) was 97.1%, the viability, T/C (second compound 0.0316 µM, first compound 0.0316 µM) was 90.9% and the viability, T/C (second compound 0.0316 µM, first compound 0.1 µM) was 82.8%. The viability, T/C (second compound 0.1 µM, first compound 0.000316 µM) was 102%, the viability, T/C (second compound 0.1 µM, first compound 0.001 µM) was 96.8% and the viability, T/C (second compound 0.1 µM, first compound 0.00316 µM) was 91.8%. For the same compound, the viability, T/C (second compound 0.1 µM, first compound 0.01 µM) was 91.9%, the viability, T/C (second compound 0.1 µM, first compound 0.0316 µM) was 97.9% and the viability, T/C (second compound 0.1 µM, first compound 0.1 µM) was 91.5%. It also gave a viability, T/C (second compound 0.316 µM, first compound 0.000316 µM) of 102%, a viability, T/C (second compound 0.316 µM, first compound 0.001 µM) of 95.9% and a viability, T/C (second compound 0.316 µM, first compound 0.00316 µM) of 98.3%. It also gave a viability, T/C (second compound 0.316 µM, first compound 0.01 µM) of 91%, a viability, T/C (second compound 0.316 µM, first compound 0.0316 µM) of 91.7% and a viability, T/C (second compound 0.316 µM, first compound 0.1 µM) of 92.8%. It also gave a viability, T/C (second compound 1 µM, first compound 0.000316 µM) of 104%, a viability, T/C (second compound 1 µM, first compound 0.001 µM) of 97.1% and a viability, T/C (second compound 1 µM, first compound 0.00316 µM) of 94.9%. It also gave a viability, T/C (second compound 1 µM, first compound 0.01 µM) of 101%, a viability, T/C (second compound 1 µM, first compound 0.0316 µM) of 104% and a viability, T/C (second compound 1 µM, first compound 0.1 µM) of 102%. It also gave a viability, T/C (second compound 3.16 µM, first compound 0.000316 µM) of 97%, a viability, T/C (second compound 3.16 µM, first compound 0.001 µM) of 104% and a viability, T/C (second compound 3.16 µM, first compound 0.00316 µM) of 94.8%. The viability, T/C (second compound 3.16 µM, first compound 0.01 µM) was 96.4%, the viability, T/C (second compound 3.16 µM, first compound 0.0316 µM) was 105% and the viability, T/C (second compound 3.16 µM, first compound 0.1 µM) was 83.3%. For the same compound, the viability, T/C (second compound 10 µM, first compound 0.000316 µM) was 94.7%, the viability, T/C (second compound 10 µM, first compound 0.001 µM) was 94.8% and the viability, T/C (second compound 10 µM, first compound 0.00316 µM) was 89.1%. It also gave a viability, T/C (second compound 10 µM, first compound 0.01 µM) of 110%, a viability, T/C (second compound 10 µM, first compound 0.0316 µM) of 98.3% and a viability, T/C (second compound 10 µM, first compound 0.1 µM) of 102%.
